Test results from ChEMBL document CHEMBL1275415, “The antimicrobial peptide NK-2, the core region of mammalian NK-lysin, kills intraerythrocytic Plasmodium falciparum” (Antimicrob Agents Chemother, 2008).
The source made the active and inactive calls. The rule behind the calls is not given here.

What was measured:
Plasmodium falciparum [1] = experiment: Antiplasmodial activity against Plasmodium falciparum 3D7 trophozoite infected in human RBC assessed as partial induction of hemolysis at 0.1 to 100 uM after 1 hrs by spectrophotometry in presence of > 100 ug/ml annexin V and calcium; assay type: functional, organism-based
Plasmodium falciparum [2] = experiment: Antiplasmodial activity against Plasmodium falciparum 3D7 assessed as reduction in parasite viability at 6.2 uM after 45 hrs by fluorospectrometry; assay type: functional; conditions: 3D7, 45 h
Plasmodium falciparum [3] = experiment: Antiplasmodial activity against Plasmodium falciparum 3D7 trophozoites infected in human RBC assessed as induction of hemolysis at 5 to 20 uM after 2 hrs by spectrophotometry; assay type: functional, organism-based
Plasmodium falciparum [4] = experiment: Antiplasmodial activity against Plasmodium falciparum 3D7 schizonts infected in human RBC assessed as induction of hemolysis at 5 to 20 uM after 2 hrs by spectrophotometry; assay type: functional, organism-based
Plasmodium falciparum [5] = experiment: Antiplasmodial activity against Plasmodium falciparum 3D7 infected in human RBC assessed as appearance of hemozoin crystals at 10 uM after 1 hrs by light microscopy; assay type: functional, organism-based
Plasmodium falciparum [6] = experiment: Antiplasmodial activity against Plasmodium falciparum 3D7 trophozoites infected in human RBC assessed as induction of hemolysis at 10 uM after 90 min by spectrophotometry; assay type: functional, organism-based
Plasmodium falciparum [7] = experiment: Antiplasmodial activity against Plasmodium falciparum 3D7 infected in human RBC assessed as permeabilization of plasma membrane at 5 uM after 20 to 120 min by sytox green dye uptake assay; assay type: functional, organism-based
Plasmodium falciparum [8] = experiment: Antiplasmodial activity against Plasmodium falciparum 3D7 infected in human RBC assessed as permeabilization of plasma membrane at 10 uM after 20 to 120 min by sytox green dye uptake assay; assay type: functional, organism-based
Plasmodium falciparum [9] = experiment: Antiplasmodial activity against Plasmodium falciparum 3D7 infected in human RBC assessed as permeabilization of plasma membrane at > 20 uM after 20 to 120 min by sytox green dye uptake assay; assay type: functional, organism-based
Plasmodium falciparum [10] = experiment: Antiplasmodial activity against Plasmodium falciparum 3D7 trophozoite infected in human RBC assessed as partial induction of hemolysis at 0.1 to 100 uM after 1 hrs by spectrophotometry in presence of 100 ug/ml annexin V and calcium; assay type: functional, organism-based
Plasmodium falciparum [11] = experiment: Antiplasmodial activity against Plasmodium falciparum 3D7 assessed as reduction in parasite viability after 45 hrs by fluorospectrometry; assay type: functional, organism-based
[12] = Cytotoxicity against human RBC assessed as induction of hemolysis at 5 to 20 uM after 2 hrs by spectrophotometry; assay type: cell-based; conditions: erythrocyte

With H-KILRGVCKKIMRTFLRRISKDILTGKK-OH the Activity (Plasmodium falciparum [1]) was “inactive”, the inhibition at 6.2 µM (Plasmodium falciparum [2]) was 50% and the Activity (Plasmodium falciparum [3]) was “Active”. The Activity (Plasmodium falciparum [4]) was “Active”, the Activity (Plasmodium falciparum [5]) was “Active” and the Activity (Plasmodium falciparum [6]) was “Active”. The Activity (Plasmodium falciparum [7]) was “Active”, the Activity (Plasmodium falciparum [8]) was “Active” and the Activity (Plasmodium falciparum [9]) was “inactive”. For the same substance, the Activity (Plasmodium falciparum [10]) was “Active”, the inhibition (Plasmodium falciparum [11]) was “Dose-dependent effect” and the Activity [12] was “Non-toxic”.
